Structures are written as SMILES.

In assay [1] the test system is HL-60. As to the kind of experiment: Cytotoxicity against human HL60 cells after 48 hrs by WST8 assay. It counts as functional, cell-based. As to conditions: HL-60, 48 h.
In assay [2] the test system is HeLa. As to the kind of experiment: Cytotoxicity against human HeLa cells after 48 hrs by WST8 assay. It counts as functional, cell-based.
Assay [3] deals with HeLa. As to the kind of experiment: Cytotoxicity against human HeLa cells at 100 uM after 48 hrs by WST8 assay. It counts as functional.
Assay [4] concerns HeLa. As to the kind of experiment: Ratio of IC50 for human HeLa cells to IC50 for human HL60 cells. It counts as functional.
For assay [5], the system named is HL-60. As to the kind of experiment: Cytotoxicity against human HL60 cells at 100 uM after 48 hrs by WST8 assay. It counts as functional. Particulars: HL-60, 48 h.

As to `O[C@@H](c1ccccc1)[C@H]1CO[C@H](c2ccccc2)[C@@H](C/C=C/c2ccccc2F)C1`, the IC50 in assay [1] came out at 9.53 µM; in assay [2] it was 9.73 µM. For `COc1ccc(/C=C/C[C@H]2C[C@H]([C@H](O)c3ccc(OC)c(OC)c3)CO[C@@H]2c2ccc(OC)c(OC)c2)cc1OC`, the results for the IC50 in assay [1] and in assay [2] were 23.5 µM and 34.6 µM, respectively. The matching figures for `COc1ccc(/C=C/C[C@@H]2C[C@@H]([C@@H](O)c3ccc(OC)c(OC)c3)CO[C@H]2c2ccc(OC)c(OC)c2)cc1OC`: 26 µM and 30.6 µM. For the molecule `COc1ccc(CCC[C@H]2C[C@@H]([C@@H](O)c3ccc(OC)c(OC)c3)CO[C@@H]2c2ccc(OC)c(OC)c2)cc1OC`, in assay [2], the IC50 came out at 37.7 µM. `COc1ccc(/C=C/C[C@H]2C[C@@H]([C@@H](OC(C)=O)c3ccc(OC)c(OC)c3)CO[C@@H]2c2ccc(OC)c(OC)c2)cc1OC` showed an inhibition at 100 µM in assay [3] of 29%. Further, the IC50 in assay [2] is more than 100 µM. On the same counts, the results for `COc1ccc(/C=C/C[C@H]2C[C@@H]([C@@H](OC)c3ccc(OC)c(OC)c3)CO[C@@H]2c2ccc(OC)c(OC)c2)cc1OC` are 4.8% and more than 100 µM. On to `COc1ccc([C@H]2OC[C@H]([C@@H](O)c3ccc(OC)c(OC)c3)C[C@@H]2C/C=C/c2ccc(OC)c(OC)c2)cc1`, for which the IC50 in assay [2] amounted to 46.7 µM. This counts as double-digit micromolar. Still for that read-out and setting: then `COc1cccc([C@H]2OC[C@H]([C@@H](O)c3ccc(OC)c(OC)c3)C[C@@H]2C/C=C/c2ccc(OC)c(OC)c2)c1`, with 21.8 µM; and `COc1ccc(/C=C/C[C@H]2C[C@@H]([C@@H](O)c3ccc(OC)c(OC)c3)CO[C@@H]2c2ccccc2)cc1OC`, with 17 µM. On the same count and under the same terms, then `COc1ccc([C@H](O)[C@H]2CO[C@H](c3ccc(OC)c(OC)c3)[C@@H](C/C=C/c3ccc(OC)c(OC)c3)C2)cc1`, with 46 µM; and `COc1cccc([C@H](O)[C@H]2CO[C@H](c3ccc(OC)c(OC)c3)[C@@H](C/C=C/c3ccc(OC)c(OC)c3)C2)c1`, with 21.2 µM. In turn, `COc1ccc(/C=C/C[C@H]2C[C@@H]([C@@H](O)c3ccccc3)CO[C@@H]2c2ccc(OC)c(OC)c2)cc1OC` had an IC50 in assay [2] of 15.5 µM. On the same count and under the same terms, under `COc1ccc(/C=C/C[C@H]2C[C@@H]([C@@H](O)c3ccc(OC)c(OC)c3)CO[C@@H]2c2ccc(OC)c(OC)c2)cc1` stands 12.2 µM.

In assay [2], `COc1cccc(/C=C/C[C@H]2C[C@@H]([C@@H](O)c3ccc(OC)c(OC)c3)CO[C@@H]2c2ccc(OC)c(OC)c2)c1` gave an IC50 of 14 µM. Still for that read-out and setting: then `COc1ccc([C@H]2OC[C@H]([C@@H](O)c3ccc(OC)c(OC)c3)C[C@@H]2C/C=C/c2ccccc2)cc1OC`, with 14.8 µM. For `C=CC[C@H]1C[C@@H]([C@@H](O)c2ccccc2)CO[C@@H]1c1ccccc1`, the values for the IC50 in assay [1] and in assay [2] were 36 µM and 25.4 µM, respectively. Regarding `O[C@@H](c1ccccc1)[C@H]1CO[C@H](c2ccccc2)[C@@H](C/C=C/c2ccccc2)C1`, the “Ratio IC50” value in assay [4] came to 1.5. The figures for the IC50 in assay [1] and in assay [2] were 7.04 µM and 6.06 µM, respectively.

With `O[C@@H](c1ccccc1)[C@H]1CO[C@H](c2ccccc2)[C@@H](C/C=C/c2ccccn2)C1`, the IC50 in assay [1] turned out to be 36.4 µM; in assay [2], 33.8 µM. `O[C@@H](c1ccccc1)[C@H]1CO[C@H](c2ccccc2)[C@@H](C/C=C/c2cccnc2)C1`: the inhibition at 100 µM stood at 48% in assay [5] and 4% in assay [3]. Besides, the IC50 in assay [1] and in assay [2] was more than 100 µM throughout.

As for `O[C@@H](c1ccccc1)[C@H]1CO[C@H](c2ccccc2)[C@@H](C/C=C/c2ccncc2)C1`, the results for the inhibition at 100 µM in assay [5] and in assay [3] were 13% and 34%, respectively. In addition, the half-maximal inhibitory concentration (IC50) in assay [1] and in assay [2] was more than 100 µM in each case. With `Oc1ccccc1/C=C/C[C@H]1C[C@@H]([C@@H](O)c2ccccc2)CO[C@@H]1c1ccccc1`, the IC50 turned out to be 10.8 µM in assay [1] and 21.8 µM in assay [2]. On the same counts, the results for `Oc1cccc(/C=C/C[C@H]2C[C@@H]([C@@H](O)c3ccccc3)CO[C@@H]2c2ccccc2)c1` are 12.8 µM and 18.6 µM. The matching figures for `Oc1ccc(/C=C/C[C@H]2C[C@@H]([C@@H](O)c3ccccc3)CO[C@@H]2c2ccccc2)cc1`: 7.38 µM and 14.4 µM. In the case of `COc1ccccc1/C=C/C[C@H]1C[C@@H]([C@@H](O)c2ccccc2)CO[C@@H]1c1ccccc1`, the IC50 in assay [1] worked out at 10.1 µM; in assay [2], 14.7 µM. As for `COc1cccc(/C=C/C[C@H]2C[C@@H]([C@@H](O)c3ccccc3)CO[C@@H]2c2ccccc2)c1`, the values for the half-maximal inhibitory concentration (IC50) in assay [1] and in assay [2] were 9.62 µM and 10.9 µM, respectively. On the same counts, the results for `COc1ccc(/C=C/C[C@H]2C[C@@H]([C@@H](O)c3ccccc3)CO[C@@H]2c2ccccc2)cc1` are 9.01 µM and 8.3 µM.

For the molecule `O[C@@H](c1ccccc1)[C@H]1CO[C@H](c2ccccc2)[C@@H](C/C=C/c2cccc(F)c2)C1`, the half-inhibitory concentration (IC50) in assay [1] turned out to be 9.17 µM; in assay [2], 8.38 µM.

For `O[C@@H](c1ccccc1)[C@H]1CO[C@H](c2ccccc2)[C@@H](C/C=C/c2ccc(F)cc2)C1`, the concentration for half-maximal inhibition (IC50) turned out to be 8.11 µM in assay [1] and 8.34 µM in assay [2]. Regarding `O=[N+]([O-])c1ccccc1/C=C/C[C@H]1C[C@@H]([C@@H](O)c2ccccc2)CO[C@@H]1c1ccccc1`, the IC50 in assay [1] turned out to be 7.25 µM; in assay [2], 11.8 µM. On the same counts, the results for `O=[N+]([O-])c1cccc(/C=C/C[C@H]2C[C@@H]([C@@H](O)c3ccccc3)CO[C@@H]2c2ccccc2)c1` are 6.35 µM and 7.85 µM.

For the molecule `O=[N+]([O-])c1ccc(/C=C/C[C@H]2C[C@@H]([C@@H](O)c3ccccc3)CO[C@@H]2c2ccccc2)cc1`, the 50% inhibitory concentration (IC50) in assay [1] came out at 4.88 µM; in assay [2], 12.4 µM. As for `Cc1ccc(/C=C/C[C@H]2C[C@@H]([C@@H](O)c3ccccc3)CO[C@@H]2c2ccccc2)cc1C`, the half-maximal inhibitory concentration (IC50) is 9.88 µM in assay [1] and 10 µM in assay [2]. For the molecule `O[C@@H](c1ccccc1)[C@H]1CO[C@H](c2ccccc2)[C@@H](C/C=C/C2CCCC2)C1`, the values for the half-inhibitory concentration (IC50) in assay [1] and in assay [2] were 9.06 µM and 9.33 µM, respectively. As for `O[C@@H](c1ccccc1)[C@H]1CO[C@H](c2ccccc2)[C@@H](C/C=C/C2CCCCC2)C1`, the half-maximal inhibitory concentration (IC50) was determined as 6.26 µM in assay [1] and 6.44 µM in assay [2]. The matching figures for `CCCCCC/C=C/C[C@H]1C[C@@H]([C@@H](O)c2ccccc2)CO[C@@H]1c1ccccc1`: 4.99 µM and 7.4 µM. On to `COc1ccc(CCC[C@@H]2C[C@@H]([C@@H](O)c3ccc(OC)c(OC)c3)CO[C@H]2c2ccc(OC)c(OC)c2)cc1OC`, for which the half-inhibitory concentration (IC50) in assay [2] is 35.7 µM. On to `COc1ccc(/C=C/C[C@@H]2C[C@@H]([C@@H](OC(C)=O)c3ccc(OC)c(OC)c3)CO[C@H]2c2ccc(OC)c(OC)c2)cc1OC`, for which the inhibition at 100 µM in assay [3] turned out to be 48%. In assay [2], this molecule came in with an IC50 of more than 100 µM. The matching figures for `COc1ccc(/C=C/C[C@@H]2C[C@@H]([C@@H](OC)c3ccc(OC)c(OC)c3)CO[C@H]2c2ccc(OC)c(OC)c2)cc1OC`: 34% and more than 100 µM. `COc1ccc([C@@H]2OC[C@H]([C@@H](O)c3ccc(OC)c(OC)c3)C[C@H]2C/C=C/c2ccc(OC)c(OC)c2)cc1` displayed an IC50 in assay [2] of 29.2 µM. In turn, `COc1cccc([C@@H]2OC[C@H]([C@@H](O)c3ccc(OC)c(OC)c3)C[C@H]2C/C=C/c2ccc(OC)c(OC)c2)c1` gave a half-inhibitory concentration (IC50) in assay [2] of 30.1 µM. Same read-out and setting: under `COc1ccc(/C=C/C[C@@H]2C[C@@H]([C@@H](O)c3ccc(OC)c(OC)c3)CO[C@H]2c2ccccc2)cc1OC` stands 16.1 µM; under `COc1ccc([C@H](O)[C@H]2CO[C@@H](c3ccc(OC)c(OC)c3)[C@H](C/C=C/c3ccc(OC)c(OC)c3)C2)cc1`, 32.2 µM; under `COc1cccc([C@H](O)[C@H]2CO[C@@H](c3ccc(OC)c(OC)c3)[C@H](C/C=C/c3ccc(OC)c(OC)c3)C2)c1`, 18.6 µM. The molecule `COc1ccc(/C=C/C[C@@H]2C[C@@H]([C@@H](O)c3ccccc3)CO[C@H]2c2ccc(OC)c(OC)c2)cc1OC` had an IC50 in assay [2] of 16.8 µM. The IC50 values of the last two molecules are within 1.5-fold of each other. The same measure, in the same setting: under `COc1ccc(/C=C/C[C@@H]2C[C@@H]([C@@H](O)c3ccc(OC)c(OC)c3)CO[C@H]2c2ccc(OC)c(OC)c2)cc1` stands 17.1 µM. Molecule `COc1cccc(/C=C/C[C@@H]2C[C@@H]([C@@H](O)c3ccc(OC)c(OC)c3)CO[C@H]2c2ccc(OC)c(OC)c2)c1` registered a concentration for half-maximal inhibition (IC50) in assay [2] of 16.4 µM. The IC50 values of the last two molecules are within 1.5-fold of each other. `COc1ccc([C@H](O)[C@H]2CO[C@@H](c3ccc(OC)c(OC)c3)[C@H](C/C=C/c3ccccc3)C2)cc1OC`: the half-inhibitory concentration (IC50) in assay [2] turned out to be 16.1 µM. As to `COc1ccc(/C=C/C[C@H]2C[C@@H]([C@@H](O)c3ccc(OC)c(OC)c3)CO[C@@H]2c2ccc(OC)c(OC)c2)cc1OC`, the 50% inhibitory concentration (IC50) in assay [1] was 34.7 µM; in assay [2], 23.8 µM. In assay [2], `COc1ccc(/C=C/C[C@@H]2C[C@H]([C@H](O)c3ccc(OC)c(OC)c3)CO[C@H]2c2ccc(OC)c(OC)c2)cc1OC` displayed an IC50 of 28.7 µM.

These data come from ChEMBL document CHEMBL2413058, “Structure-cytotoxic activity relationship of sesquilignan, morinol A” (Bioorg Med Chem Lett, 2013).
